Results reported in patent US6919464B1, “Synthetic derivatives of 21-butenyl and related spinosyns” (Dow AgroSciences LLC, priority 2001, dated 2005).

How the values were obtained:
Type in all cases: in vivo
Heliothis virescens [1] = test: Tobacco Budworm (Heliothis virescens) feeding assay, cotton leaf-dip; settings: second instar larvae
Source text: To compare insecticidal activities of compounds of the invention against second instar larval Heliothis virescens leaf-dip bioassay was used. Cotton cotyledon leaves were dipped in a test solution made up of the compound dissolved in acetone: Millipore water (2:1) at rates of 400 ppm to 1.56 ppm. Each cotyledon was placed individually on top of a moistened (distilled water) cotton ball in the bottom of a 1 oz plastic cup and allowed to dry (one hour). After drying, a single laboratory-reared second instar Heliothis virescens larva (mean weight 15 mg.) was placed on the treated leaf and the cup sealed with a lid, and held at 27° C. for four days. Percent mortality was determined at the end of the holding period.

Heliothis virescens [2] = test: Tobacco Budworm (Heliothis virescens) topical assay
Method: An additional measure of the relative insecticidal activities of the compounds of the invention was generated by using a 1 ug/ul acetone solution of each compound applied at 1 ug/larva of laboratory-reared Heliothis virescens larvae (mean weight of 22 mg). Each compound was applied along the dorsum of each of six larvae. Treated larvae were then held for two days at 21° C., 60% RH in six-well plastic culture plates. Larvae were each supplied with a 1 cm^3 of agar-based lepidoptera diet for sustenance during the two-day post-exposure interval. Percent mortality was determined at the end of a two-day period.

Aphis gossypii = test: Cotton Aphid (Aphis gossypii) assay, spray on squash seedlings; settings: rate 50 ppm, relative to plants sprayed with solvent only; for mortality at 50 ppm: Aphis gossypii, 72 h
Method: Insecticidal activities of the compounds of the invention were also evaluated against cotton aphids (Aphis gossyppi) as follows. Summer crookneck squash seedlings at the expanded cotyledon stage are primed to a single cotyledon and infested with cotton aphids 16-24 hours before application of the test material by transfer of infested foliage cut from a stock colony. Immediately prior to spray application of the test material, the transfer foliage is removed from the squash plants. The test material is dissolved at 1 mg/ml in 90:10 acetone:alcohol, then diluted in water containing 0.05% Tween 20 (polyethylene (20) sorbitan monolaurate) to give test solution at a concentration of 50 ppm. The plants were sprayed with the test solution using an atomizing sprayer at 17 psi. Both surfaces of the cotyledons are covered until runnoff, and then allowed to dry. Activity of the compound was determined at three days after treatment. Activity was rated as a percent based on the number of aphids present in plants sprayed with solvent only.

[3] = Heliothis virescens, rate 1.56 ppm, 96 h
[4] = Heliothis virescens, rate 400 ppm, 96 h

CC/C=C/[C@H]1CCC[C@H](OC2CC[C@H](N(C)C)[C@@H](C)O2)[C@@H](C)C(=O)C2=CC3C(C=CC4C[C@@H](O[C@@H]5O[C@@H](C)[C@H](OC)[C@@H](OCC)[C@H]5OC)CC43)C2CC(=O)O1 (stereo partly drawn) [Compound A2, for-(3′-O-ethylrham)-I]
mortality at 1.56 ppm (Heliothis virescens [1]; [3]): 100% | Tobacco Budworm Typical (48 h) Mortality (%) (Heliothis virescens [2]; in vivo): 100% | mortality at 50 ppm (Aphis gossypii): 97%

CCOC(C)CCC1CCCC(OC2CCC(N(C)C)C(C)O2)C(C)C(=O)C2=CC3C4CC(OC5OC(C)C(OC)C(OC)C5OC)CC4CCC3C2CC(=O)O1 (stereo not drawn) [Compound A25]
Tobacco Budworm Typical (48 h) Mortality (%) (Heliothis virescens [2]; rate 1 µg/larva, 48 h): 83% | Cotton Aphid mortality (72 h) Mortality (%) (Aphis gossypii): 79%

CC=CC(CC(=O)N(C)C)C1CCCC(OC2CCC(N(C)C)C(C)O2)C(C)C(=O)C2=CC3C(C=CC4CC(OC5OC(C)C(OC)C(OCC)C5OC)CC43)C2CC(=O)O1 (stereo not drawn) [Compound A28]
Tobacco Budworm Feeding (96 h) Mortality (%) (Heliothis virescens [1]; rate 400 ppm): 100% | Cotton Aphid mortality (72 h) Mortality (%) (Aphis gossypii): 48%

CC/C=C/[C@H]1CCC[C@H](OC2CC[C@H](N(C)C)[C@@H](C)O2)[C@@H](C)C(=O)C2=CC3C4C[C@H](O[C@@H]5O[C@@H](C)[C@H](OC)[C@@H](OC)[C@H]5OC)CC4C4OC4C3C2CC(=O)O1 (stereo partly drawn) [Compound C1, 5,6-epoxy-for-rham-I]
mortality at 400 ppm (Heliothis virescens [1]; [4]): 100% | mortality at 50 ppm (Aphis gossypii): 95%

CC=CC(CC(=O)OC)C1CCCC(OC2CCC(N(C)C)C(C)O2)C(C)C(=O)C2=CC3C(C=CC4CC(OC5OC(C)C(OC)C(OCC)C5OC)CC43)C2CC(=O)O1 (stereo not drawn) [Compound A27]
Tobacco Budworm Typical (48 h) Mortality (%) (Heliothis virescens [2]; rate 1 µg/larva, 48 h): 100% | Cotton Aphid mortality (72 h) Mortality (%) (Aphis gossypii): 33%

CCCCC1CCCC(OC2CCC(N(C)C)C(C)O2)C(C)C(=O)C2=CC3C4CC(OC5OC(C)C(OC)C(OCC)C5OC)CC4CCC3C2CC(=O)O1 (stereo not drawn) [Compound A15]
Tobacco Budworm Feeding (96 h) Mortality (%) (Heliothis virescens [1]; rate 6.25 ppm): 100% | Cotton Aphid mortality (72 h) Mortality (%) (Aphis gossypii): 100%

CCCC[C@H]1CCC[C@H](OC2CC[C@H](N(C)C)[C@@H](C)O2)[C@@H](C)C(=O)C2=CC3C4C[C@H](O[C@@H]5O[C@@H](C)[C@H](OC)[C@@H](OC)[C@H]5OC)CC4CCC3C2CC(=O)O1 (stereo partly drawn) [Compound B3, 5,6,22,23-tetrahydro-for-rham-I]
mortality at 6.25 ppm (Heliothis virescens [1]; Heliothis virescens, rate 6.25 ppm, 96 h): 100% | Tobacco Budworm Typical (48 h) Mortality (%) (Heliothis virescens [2]; in vivo): 100% | mortality at 50 ppm (Aphis gossypii): 53%

CC/C=C/[C@H]1CCC[C@H](OC2CC[C@H](N(C)C)[C@@H](C)O2)[C@@H](C)C(=O)C2=CC3C(C=CC4C[C@@H](O[C@@H]5O[C@@H](C)[C@H](OC)[C@@H](OCCC)[C@H]5OC)CC43)C2CC(=O)O1 (stereo partly drawn) [Compound A6, for-(3′-O-n-propylrham)-I]
Tobacco Budworm Typical (48 h) Mortality (%) (Heliothis virescens [2]; in vivo): 100% | mortality at 50 ppm (Aphis gossypii): 54%

CCC=CC1CCCC(OC2CCC(N(C)CC)C(C)O2)C(C)C(=O)C2=CC3C(C=CC4CC(OC5OC(C)C(OC)C(OC)C5OC)CC43)C2CC(=O)O1 (stereo not drawn) [Compound D1]
Tobacco Budworm Typical (48 h) Mortality (%) (Heliothis virescens [2]; rate 1 µg/larva, 48 h): 83%

CCCC[C@H]1CCC[C@H](O[C@H]2CC[C@H](N(C)C)[C@@H](C)O2)[C@@H](C)C(=O)C2=CC3C4C[C@H](O[C@@H]5O[C@@H](C)[C@H](O)[C@@H](OC)[C@H]5OC)CC4CCC3C2CC(=O)O1 (stereo partly drawn) [Compound A14, 5,6,22,23-tetrahydro for-(4′-O-desmethylrham)-I]
Tobacco Budworm Typical (48 h) Mortality (%) (Heliothis virescens [2]; in vivo): 83% | mortality at 50 ppm (Aphis gossypii): 92%

CC/C=C/C1CCC[C@H](O[C@H]2CC[C@H](N(C)C=O)[C@@H](C)O2)[C@@H](C)C(=O)C2=CC3C(C=CC4C[C@@H](O[C@@H]5O[C@@H](C)[C@H](OC)[C@@H](OC)[C@H]5OC)CC43)C2CC(=O)O1 (stereo partly drawn) [Compound D4, (N-formyl)-for-rham-I]
mortality at 400 ppm (Heliothis virescens [1]; [4]): 100% | mortality at 50 ppm (Aphis gossypii): 92%

CCC=CC1CCCC(OC2CCC(N(C)C(C)=O)C(C)O2)C(C)C(=O)C2=CC3C(C=CC4CC(OC5OC(C)C(OC)C(OC)C5OC)CC43)C2CC(=O)O1 (stereo not drawn) [Compound D5]
Tobacco Budworm Feeding (96 h) Mortality (%) (Heliothis virescens [1]; rate 400 ppm): 100% | Cotton Aphid mortality (72 h) Mortality (%) (Aphis gossypii): 92%

COC1C(C)OC(OC2CC3CCC4C5CC(=O)OC(CCC(C)O)CCCC(OC6CCC(N(C)C)C(C)O6)C(C)C(=O)C5=CC4C3C2)C(OC)C1OC (stereo not drawn) [Compound B17]
Tobacco Budworm Typical (48 h) Mortality (%) (Heliothis virescens [2]; rate 1 µg/larva, 48 h): 17% | Cotton Aphid mortality (72 h) Mortality (%) (Aphis gossypii): 11%

CCCCOC(C)/C=C/C1CCC[C@H](O[C@H]2CC[C@H](N(C)C)[C@@H](C)O2)[C@@H](C)C(=O)C2=CC3C(C=CC4C[C@@H](O[C@@H]5O[C@@H](C)[C@H](OC)[C@@H](OCCCC)[C@H]5OC)CC43)C2CC(=O)O1 (stereo partly drawn) [Compound A21, (24-O-n-butyl)-for-(3′-O-n-butylrham)-I]
mortality at 400 ppm (Heliothis virescens [1]; [4]): 100% | mortality at 50 ppm (Aphis gossypii): 59%

CCC=CC1CCCC(OC2CCC(N(C)C)C(C)O2)C(C)C(=O)C2=CC3C4CC(OC5OC(C)C(OC)C(OCCCC)C5OC)CC4CCC3C2CC(=O)O1 (stereo not drawn) [Compound A24]
Tobacco Budworm Feeding (96 h) Mortality (%) (Heliothis virescens [1]; rate 400 ppm): 100% | Cotton Aphid mortality (72 h) Mortality (%) (Aphis gossypii): 99%

CC/C=C/[C@H]1CCC[C@H](OC2CC[C@H](N(C)C)[C@@H](C)O2)[C@@H](C)C(=O)C2=CC3C(C=CC4C[C@@H](O[C@@H]5O[C@@H](C)[C@H](OCC)[C@@H](OCC)[C@H]5OC)CC43)C2CC(=O)O1 (stereo partly drawn) [Compound A3, for-(3′,4′-bis-O-ethylrham)-I]
Tobacco Budworm Typical (48 h) Mortality (%) (Heliothis virescens [2]; in vivo): 67%

CCCCC1CCCC(OC2CCC(N(C)C)C(C)O2)C(C)C(=O)C2=CC3C4CC(OC5OC(C)C(OC)C(OCCC)C5OC)CC4CCC3C2CC(=O)O1 (stereo not drawn) [Compound A16]
Tobacco Budworm Feeding (96 h) Mortality (%) (Heliothis virescens [1]; rate 6.25 ppm): 100% | Cotton Aphid mortality (72 h) Mortality (%) (Aphis gossypii): 100%

CC/C=C/[C@H]1CCC[C@H](OC2CC[C@H](N(C)C)[C@@H](C)O2)[C@@H](C)C(=O)C2=CC3C(C=CC4C3C[C@H](O[C@@H]3O[C@@H](C)[C@H](OC)[C@@H](OC)[C@H]3OC)[C@H]4OCC)C2CC(=O)O1 (stereo partly drawn) [Compound A5, (8-O-ethyl)-for-rham-III]
mortality at 400 ppm (Heliothis virescens [1]; [4]): 100% | mortality at 50 ppm (Aphis gossypii): 53%

CCC=CC1CCCC(OC2CCC(N(C)C)C(C)O2)C(C)C(=O)C2=CC3C4CC(OC5OC(C)C(OC)C(OCC)C5OC)CC4CCC3C2CC(=O)O1 (stereo not drawn) [Compound A22]
Tobacco Budworm Feeding (96 h) Mortality (%) (Heliothis virescens [1]; rate 400 ppm): 100% | Cotton Aphid mortality (72 h) Mortality (%) (Aphis gossypii): 99%

CCCCOC1C(OC)C(C)OC(OC2CC3CCC4C5CC(=O)OC(CCCC)CCCC(OC6CCC(N(C)C)C(C)O6)C(C)C(=O)C5=CC4C3C2)C1OC (stereo not drawn) [Compound A17]
Tobacco Budworm Feeding (96 h) Mortality (%) (Heliothis virescens [1]; rate 6.25 ppm): 10% | Tobacco Budworm Typical (48 h) Mortality (%) (Heliothis virescens [2]; rate 1 µg/larva, 48 h): 100% | Cotton Aphid mortality (72 h) Mortality (%) (Aphis gossypii): 100%

CCCOC(C)C=CC1CCCC(OC2CCC(N(C)C)C(C)O2)C(C)C(=O)C2=CC3C(C=CC4CC(OC5OC(C)C(OC)C(OCCC)C5OC)CC43)C2CC(=O)O1 (stereo not drawn) [Compound A20]
Tobacco Budworm Feeding (96 h) Mortality (%) (Heliothis virescens [1]; rate 400 ppm): 100% | Cotton Aphid mortality (72 h) Mortality (%) (Aphis gossypii): 99%

CCC=CC1CCCC(OC2CCC(N(C)C)C(C)O2)C(C)C(=O)C2=CC3C4CC(OC5OC(C)C(OC)C(OCCC)C5OC)CC4CCC3C2CC(=O)O1 (stereo not drawn) [Compound A23]
Tobacco Budworm Feeding (96 h) Mortality (%) (Heliothis virescens [1]; rate 400 ppm): 100% | Cotton Aphid mortality (72 h) Mortality (%) (Aphis gossypii): 100%

CCCCCOC1C(OC)C(C)OC(OC2CC3CCC4C5CC(=O)OC(CCCC)CCCC(OC6CCC(N(C)C)C(C)O6)C(C)C(=O)C5=CC4C3C2)C1OC (stereo not drawn) [Compound A18]
Tobacco Budworm Feeding (96 h) Mortality (%) (Heliothis virescens [1]; rate 1.56 ppm): 20% | Tobacco Budworm Typical (48 h) Mortality (%) (Heliothis virescens [2]; rate 1 µg/larva, 48 h): 33% | Cotton Aphid mortality (72 h) Mortality (%) (Aphis gossypii): 91%

CCCCC1CCCC(OC2CCC(N(C)C)C(C)O2)C(C)C(=O)C2=CC3C4CC(OC5OC(C)C(OCC)C(OCC)C5OC)CC4CCC3C2CC(=O)O1 (stereo not drawn) [Compound B2, 5,6,22,23-tetrahydro-for-(3′,4′-bis-O-ethylrham)-I]
Tobacco Budworm Typical (48 h) Mortality (%) (Heliothis virescens [2]; rate 1 µg/larva, 48 h): 83% | Cotton Aphid mortality (72 h) Mortality (%) (Aphis gossypii): 97%

CCOC(C)/C=C/[C@H]1CCC[C@H](OC2CC[C@H](N(C)C)[C@@H](C)O2)[C@@H](C)C(=O)C2=CC3C(C=CC4C[C@@H](O[C@@H]5O[C@@H](C)[C@H](OC)[C@@H](OC)[C@H]5OC)CC43)C2CC(=O)O1 (stereo partly drawn) [Compound A4, (24-O-thyl) for-rham-I]
mortality at 400 ppm (Heliothis virescens [1]; [4]): 100% | mortality at 50 ppm (Aphis gossypii): 99%

CC/C=C/[C@H]1CCC[C@H](OC2CC[C@H](N(C)C)[C@@H](C)O2)[C@@H](C)C(=O)C2=CC3C(C=CC4C[C@@H](O[C@@H]5O[C@@H](C)[C@H](OC)[C@@H](OC)[C@H]5OCC)CC43)C2CC(=O)O1 (stereo partly drawn) [Compound A1, for-(2′-O-ethylrham)-I]
mortality at 1.56 ppm (Heliothis virescens [1]; [3]): 100% | mortality at 50 ppm (Aphis gossypii): 87%

5,6,22,23-tetrahydro-for-(3′,4′-methylenedioxyrham)-I [Compound A26]
Tobacco Budworm Typical (48 h) Mortality (%) (Heliothis virescens [2]; in vivo): 83%

CCOC(C)C=CC1CCCC(OC2CCC(N(C)C)C(C)O2)C(C)C(=O)C2=CC3C(C=CC4CC(OC5OC(C)C(OC)C(OCC)C5OC)CC43)C2CC(=O)O1 (stereo not drawn) [Compound A19]
Tobacco Budworm Feeding (96 h) Mortality (%) (Heliothis virescens [1]; rate 400 ppm): 100% | Cotton Aphid mortality (72 h) Mortality (%) (Aphis gossypii): 99%
